# Target: estrogen receptor alpha (ESR1) in MCF7 breast cancer cells (Homo sapiens (Human), UniProt P03372)
# Assay: Breast Cancer Cell ERa High Content Fluorescence Imaging Degradation Assay (Example 901)
# Format: cell-based
# Details: 4 hours, plateau of maximal effect, 0% = DMSO, 100% change = 5 nM Fulvestrant
# Experimental: Where more than one name is associated with a Formula I compound or intermediate, the chemical structure shall define the compound. […] Cell plates were incubated at 37° C., for 4 hours. Fixation and permeabilization were carried out using a Biotek EL406 plate washer and dispenser as follows. […] Well contents were aspirated and washed 3 times with 100 μL/well of PBS. […] Samples were incubated for 2 hours at room temperature. […] Samples were incubated for 2 hours at room temperature. […] Quantitative fluorescence imaging of ESR1 was carried out using a Cellomics Arrayscan V (Thermo). […] Channel 1 (DNA stain) was used to define the nuclear region (Circ). […] The “Robust Fit” method was used to define the inflexion point of curve (EC50) and the plateau of the maximal effect (Sinf).
# Chain of estrogen receptor alpha (ESR1) in MCF7 breast cancer cells (P03372 whole entry): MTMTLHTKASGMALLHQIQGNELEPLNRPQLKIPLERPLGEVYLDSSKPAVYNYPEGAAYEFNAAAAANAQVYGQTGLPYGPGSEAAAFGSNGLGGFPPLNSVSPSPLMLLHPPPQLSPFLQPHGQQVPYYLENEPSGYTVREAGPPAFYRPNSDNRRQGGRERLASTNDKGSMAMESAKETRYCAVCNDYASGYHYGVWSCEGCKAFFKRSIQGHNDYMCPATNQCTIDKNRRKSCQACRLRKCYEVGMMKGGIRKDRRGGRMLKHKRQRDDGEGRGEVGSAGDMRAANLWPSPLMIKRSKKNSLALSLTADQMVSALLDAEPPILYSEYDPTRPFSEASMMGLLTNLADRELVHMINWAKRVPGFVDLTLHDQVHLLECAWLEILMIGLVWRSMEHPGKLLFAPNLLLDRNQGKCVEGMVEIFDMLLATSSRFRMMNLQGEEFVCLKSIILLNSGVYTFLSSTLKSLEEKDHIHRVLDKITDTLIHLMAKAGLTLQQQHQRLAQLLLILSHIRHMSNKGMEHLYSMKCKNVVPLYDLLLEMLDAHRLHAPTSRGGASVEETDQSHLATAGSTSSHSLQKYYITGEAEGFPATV
row,ER-alpha MCF7 HCS Sinf (%),Structure (SMILES)
1,−95.4%,"C[C@@H]1Cc2c([nH]c3ccccc23)[C@@H](c2c(F)cc(OCCN3CC(CF)C3)cc2F)N1C(=O)C(C)(C)F [Example 104, 1-((1R,3R)-1-(2,6-difluoro-4-(2-(3-(fluoromethyl)azetidin-1-yl)ethoxy)phenyl)-3-methyl-3,4-dihydro-1H-pyrido[3,4-b]indol-2(9H)-yl)-2-fluoro-2-methylpropan-1-one]"
2,−94%,"C[C@@H]1Cc2c([nH]c3ccccc23)[C@@H](c2c(F)cc(OCCN3CC(C(F)F)C3)cc2F)N1CC(C)(C)F [Example 105, (1R,3R)-1-(4-(2-(3-(difluoromethyl)azetidin-1-yl)ethoxy)-2,6-difluorophenyl)-2-(2-fluoro-2-methylpropyl)-3-methyl-2,3,4,9-tetrahydro-1H-pyrido[3,4-b]indole]"
3,−90.4%,"C[C@@H]1Cc2c([nH]c3ccccc23)[C@@H](c2c(F)cc(OC3CN(CCCCl)C3)cc2F)N1CC(C)(C)F [Example 106, (1R,3R)-1-(4-((1-(3-chloropropyl)azetidin-3-yl)oxy)-2,6-difluorophenyl)-2-(2-fluoro-2-methylpropyl)-3-methyl-2,3,4,9-tetrahydro-1H-pyrido[3,4-b]indole]"
4,−97.6%,"CCCN1CC(Oc2cc(F)c([C@@H]3c4[nH]c5ccccc5c4C[C@@H](C)N3CC(C)(C)F)c(F)c2)C1 [Example 107, (1R,3R)-1-(2,6-difluoro-4-((1-propylazetidin-3-yl)oxy)phenyl)-2-(2-fluoro-2-methylpropyl)-3-methyl-2,3,4,9-tetrahydro-1H-pyrido[3,4-b]indole]"

# Tested on: ER-alpha MCF7
# Assay: ER-alpha MCF7 HCS EC50; stated as measured by in vitro cell proliferation assays of Examples 902 and 903
# Format: cell-based
# Details: Homo sapiens, MCF7, MCF7 cells; Table 2
# Outline: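 MCF7 cells seeded 1000-2000 cells/well for 16 h, then treated with nine-point 1:2 DMSO dilution series in quadruplicate at 37 °C, 5% CO2 for 4 days. Viable cells quantified by CellTiter-Glo ATP luminescence; EC50 calculated. Controls: fulvestrant at final 100 nM, DMSO 0.2% v/v.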
row,Structure (SMILES),EC50
1,"C[C@@H]1Cc2c([nH]c3ccccc23)[C@@H](c2c(F)cc(NC3CN(CCCF)C3)cc2F)N1C[C@@](F)(C#N)CO [Example 418, (R)-3-((1R,3R)-1-(2,6-difluoro-4-((1-(3-fluoropropyl)azetidin-3-yl)amino)phenyl)-3-methyl-3,4-dihydro-1H-pyrido[3,4-b]indol-2(9H)-yl)-2-fluoro-2-(hydroxymethyl) propanenitrile]",0.033 nM
2,"C[C@@H]1Cc2c([nH]c3ccccc23)[C@@H](c2c(F)cc(NC3CN(CCCF)C3)cc2F)N1C[C@](F)(C#N)CO [Example 419, (S)-3-((1R,3R)-1-(2,6-difluoro-4-((1-(3-fluoropropyl)azetidin-3-yl)amino)phenyl)-3-methyl-3,4-dihydro-1H-pyrido[3,4-b]indol-2(9H)-yl)-2-fluoro-2-(hydroxymethyl) propanenitrile]",0.026 nM
3,"CC1(C)Cc2c([nH]c3ccccc23)[C@@H](c2c(F)cc(NC3CN(CCCF)C3)cc2F)N1CC(F)(F)CO [Example 420, (R)-3-(1-(2,6-difluoro-4-((1-(3-fluoropropyl)azetidin-3-yl)amino)phenyl)-3,3-dimethyl-3,4-dihydro-1H-pyrido[3,4-b]indol-2(9H)-yl)-2,2-difluoropropan-1-ol]",0.117 nM
4,"CC1(C)Cc2c([nH]c3ccccc23)[C@H](c2c(F)cc(NC3CN(CCCF)C3)cc2F)N1CC(F)(F)CO [Example 421, (S)-3-(1-(2,6-difluoro-4-((1-(3-fluoropropyl)azetidin-3-yl)amino)phenyl)-3,3-dimethyl-3,4-dihydro-1H-pyrido[3,4-b]indol-2(9H)-yl)-2,2-difluoropropan-1-ol]",0.146 nM
5,"C[C@H]1Cc2c([nH]c3c(F)cccc23)[C@H](c2c(F)cc(NC3CN(CCCF)C3)cc2F)N1CC(F)(F)CO [Example 422, 3-((1S,3S)-1-(2,6-difluoro-4-((1-(3-fluoropropyl)azetidin-3-yl)amino)phenyl)-8-fluoro-3-methyl-3,4-dihydro-1H-pyrido[3,4-b]indol-2(9H)-yl)-2,2-difluoropropan-1-ol]",37.1 nM
6,"C[C@@H]1Cc2c([nH]c3c(F)cccc23)[C@@H](c2c(F)cc(NC3CN(CCCF)C3)cc2F)N1CC(F)(F)CO [Example 423, 3-((1R,3R)-1-(2,6-difluoro-4-((1-(3-fluoropropyl)azetidin-3-yl)amino)phenyl)-8-fluoro-3-methyl-3,4-dihydro-1H-pyrido[3,4-b]indol-2(9H)-yl)-2,2-difluoropropan-1-ol]",0.089 nM
7,"C[C@@H]1Cc2c([nH]c3c(F)cc(F)cc23)[C@@H](c2c(F)cc(OC3CN(CCCF)C3)cc2F)N1CC(C)(C)F [Example 424, (1R,3R)-1-(2,6-difluoro-4-(1-(3-fluoropropyl)azetidin-3-yloxy)phenyl)-6,8-difluoro-2-(2-fluoro-2-methylpropyl)-3-methyl-2,3,4,9-tetrahydro-1H-pyrido[3,4-b]indole]",0.5 nM
8,"C[C@H]1Cc2c([nH]c3cc(F)ccc23)[C@H](c2c(F)cc(NC3CN(CCCF)C3)cc2F)N1CC(F)(F)CO [Example 426, 3-((1S,3S)-1-(2,6-difluoro-4-((1-(3-fluoropropyl)azetidin-3-yl)amino)phenyl)-7-fluoro-3-methyl-3,4-dihydro-1H-pyrido[3,4-b]indol-2(9H)-yl)-2,2-difluoropropan-1-ol]",6.38 nM
9,"C[C@@H]1Cc2c([nH]c3ccccc23)[C@@H](c2cnn(CC3CN(CCCF)C3)c2)N1CC(C)(C)F [Example 429, (1R,3R)-2-(2-fluoro-2-methylpropyl)-1-(1-((1-(3-fluoropropyl)azetidin-3-yl)methyl)-1H-pyrazol-4-yl)-3-methyl-2,3,4,9-tetrahydro-1H-pyrido[3,4-b]indole]",0.99 nM
10,"C[C@@H]1Cc2c([nH]c3ccccc23)[C@@H](c2c(F)cc(NC3CN(CCCF)C3)cc2F)N1CC(F)F [Example 430, N-[4-[(1R,3R)-2-(2,2-difluoroethyl)-3-methyl-1,3,4,9-tetrahydropyrido[3,4-b]indol-1-yl]-3,5-difluoro-phenyl]-1-(3-fluoropropyl)azetidin-3-amine]",0.065 nM
11,"C[C@@H]1Cc2c([nH]c3ccc(F)cc23)[C@@H](c2c(F)cc(NC3CN(CCCF)C3)cc2F)N1C[C@@](C)(F)CO [Example 431, (R)-3-((1R,3R)-1-(2,6-difluoro-4-((1-(3-fluoropropyl)azetidin-3-yl)amino)phenyl)-6-fluoro-3-methyl-1,3,4,9-tetrahydro-2H-pyrido[3,4-b]indol-2-yl)-2-fluoro-2-methylpropan-1-ol]",0.0943 nM
12,"C[C@H]1Cc2c([nH]c3ccc(F)cc23)[C@H](c2c(F)cc(NC3CN(CCCF)C3)cc2F)N1C[C@](C)(F)CO [Example 432, (S)-3-((1S,3S)-1-(2,6-difluoro-4-((1-(3-fluoropropyl)azetidin-3-yl)amino)phenyl)-6-fluoro-3-methyl-1,3,4,9-tetrahydro-2H-pyrido[3,4-b]indol-2-yl)-2-fluoro-2-methylpropan-1-ol]",3.27 nM
13,"C[C@@H]1Cc2c([nH]c3ccc(F)cc23)[C@@H](c2c(F)cc(NC3CN(CCCF)C3)cc2F)N1C[C@](C)(F)CO [Example 433, (S)-3-((1R,3R)-1-(2,6-difluoro-4-((1-(3-fluoropropyl)azetidin-3-yl)amino)phenyl)-6-fluoro-3-methyl-1,3,4,9-tetrahydro-2H-pyrido[3,4-b]indol-2-yl)-2-fluoro-2-methylpropan-1-ol]",0.0209 nM
14,"C[C@H]1Cc2c([nH]c3ccc(F)cc23)[C@@H](c2c(F)cc(NC3CN(CCCF)C3)cc2F)N1C[C@@](C)(F)CO [Example 434, (R)-3-((1R,3S)-1-(2,6-difluoro-4-((1-(3-fluoropropyl)azetidin-3-yl)amino)phenyl)-6-fluoro-3-methyl-1,3,4,9-tetrahydro-2H-pyrido[3,4-b]indol-2-yl)-2-fluoro-2-methylpropan-1-ol]",0.706 nM

# The remaining lines, values ahead:
row,EC50,Structure (SMILES)
1,3.3 nM,"C[C@H]1Cc2c([nH]c3cccc(F)c23)[C@H](c2c(F)cc(NC3CN(CCCF)C3)cc2F)N1CC(F)(F)CO [Example 417, 3-((1S,3S)-1-(2,6-difluoro-4-((1-(3-fluoropropyl)azetidin-3-yl)amino)phenyl)-5-fluoro-3-methyl-3,4-dihydro-1H-pyrido[3,4-b]indol-2(9H)-yl)-2,2-difluoropropan-1-ol]"
2,0.021 nM,"C[C@@H]1Cc2c([nH]c3cc(F)ccc23)[C@@H](c2c(F)cc(NC3CN(CCCF)C3)cc2F)N1CC(F)(F)CO [Example 425, 3-((1R,3R)-1-(2,6-difluoro-4-((1-(3-fluoropropyl)azetidin-3-yl)amino)phenyl)-7-fluoro-3-methyl-3,4-dihydro-1H-pyrido[3,4-b]indol-2(9H)-yl)-2,2-difluoropropan-1-ol]"
3,0.278 nM,"C[C@@H]1Cc2c([nH]c3ccccc23)[C@@H](c2c(F)cc(OC3CN(CC4(CF)CC4)C3)cc2F)N1CC(C)(C)F [Example 427, (1R,3R)-1-(2,6-difluoro-4-((1-((1-(fluoromethyl)cyclopropyl)methyl)azetidin-3-yl)oxy)phenyl)-2-(2-fluoro-2-methylpropyl)-3-methyl-2,3,4,9-tetrahydro-1H-pyrido[3,4-b]indole]"
4,0.7 nM,"C[C@@H]1Cc2c([nH]c3cc(F)c(F)cc23)[C@@H](c2c(F)cc(OC3CN(CCCF)C3)cc2F)N1CC(C)(C)F [Example 428, (1R,3R)-1-(2,6-difluoro-4-(1-(3-fluoropropyl)azetidin-3-yloxy)phenyl)-6,7-difluoro-2-(2-fluoro-2-methylpropyl)-3-methyl-2,3,4,9-tetrahydro-1H-pyrido[3,4-b]indole]"

# From US20250114338A1, “TETRAHYDRO-PYRIDO[3,4-b]INDOLE ESTROGEN RECEPTOR MODULATORS AND USES THEREOF” (Genentech, Inc., priority 2014, published 2025)
